# Test results: patent US20230167073A1 (Teijin Pharma Limited, priority 2020, published 2023)
# Molecular target: T1, Human TRPC6 (Homo sapiens, UniProt Q9Y210)
# T1 construct: expressed in transfected cells
# T1 sequence (Q9Y210 1-931): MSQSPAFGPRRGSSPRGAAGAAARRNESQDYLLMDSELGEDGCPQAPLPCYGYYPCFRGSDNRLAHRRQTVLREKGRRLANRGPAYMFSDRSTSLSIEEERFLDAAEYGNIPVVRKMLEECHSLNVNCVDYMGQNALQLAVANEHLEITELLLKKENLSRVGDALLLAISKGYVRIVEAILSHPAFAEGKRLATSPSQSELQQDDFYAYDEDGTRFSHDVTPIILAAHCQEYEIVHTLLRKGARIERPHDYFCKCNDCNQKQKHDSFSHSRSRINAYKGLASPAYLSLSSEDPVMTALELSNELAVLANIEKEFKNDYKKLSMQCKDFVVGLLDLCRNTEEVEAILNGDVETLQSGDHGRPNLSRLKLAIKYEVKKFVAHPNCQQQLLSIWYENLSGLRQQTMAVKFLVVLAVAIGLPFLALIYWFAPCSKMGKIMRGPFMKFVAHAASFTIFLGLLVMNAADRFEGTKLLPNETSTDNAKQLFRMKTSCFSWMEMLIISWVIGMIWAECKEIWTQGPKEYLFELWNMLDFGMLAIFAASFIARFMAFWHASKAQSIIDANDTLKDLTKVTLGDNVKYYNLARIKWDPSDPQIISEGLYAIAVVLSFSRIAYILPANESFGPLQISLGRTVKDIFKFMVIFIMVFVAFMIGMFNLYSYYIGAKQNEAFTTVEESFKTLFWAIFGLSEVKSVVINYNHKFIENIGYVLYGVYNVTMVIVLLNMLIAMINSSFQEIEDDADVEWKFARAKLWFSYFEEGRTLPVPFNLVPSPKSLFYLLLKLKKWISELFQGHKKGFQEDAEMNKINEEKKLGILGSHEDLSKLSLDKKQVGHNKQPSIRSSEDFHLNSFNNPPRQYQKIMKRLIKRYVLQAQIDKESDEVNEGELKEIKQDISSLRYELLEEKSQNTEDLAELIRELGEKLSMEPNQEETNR
# Assay: Evaluation of TRPC6 channel inhibitory activity (1), FLIPR Calcium 5 Assay Kit, OAG stimulation (Compound Nos. 1-1293)
# Type: cell-based
# Settings: Human TRPC6 stably-expressing cells, OAG 30 μM, FLIPR Calcium 5 Assay Kit; read-out: Inhibitory activity (pIC50 class) (converted)
# Method: Evaluation of TRPC6 Channel Inhibitory Activity (1) (Compound Nos. 1-1293)
# In order to investigate TRPC6 channel inhibitory activity of the compounds, evaluation was conducted using FLIPR® Calcium 5 Assay Kit (Molecular Devices) in accordance with the following procedure. Human TRPC6 stably-expressing cells were seeded in a 384-well black clear bottom plate at a density of 5×10^3/well and cultured in an incubator at 37° C. 5% CO2 for 24 hours. Thereafter, 25 μL of a Non Wash Dye Solution, prepared using Component A, 20 mM HEPES-HBSS and 250 mM probenecid, all of which are included in the kit, was added to each well, and the plate was incubated for 30 minutes. A volume of 12.5 μL of a compound solution was added into each well while the fluorescence was measured with FLIPR tetra. After 20 minutes, 12.5 μL of a 1-oleoyl-2-acetyl glycerol (OAG) solution was added at a final concentration of 30 μM. The difference between the minimum fluorescence intensity before the addition of the compound and the maximum fluorescence intensity after the addition of OAG was defined as a signal. An inhibition rate was calculated, assuming the average signal of wells without the compound as the inhibition rate of 0% and the average signal of wells without the compound and OAG as the inhibition rate of 100%. The calculated inhibition rate was analyzed by a four-parameter logistic regression to quantify the inhibition rate in the logarithm of the inverse of the effective concentration which gives a 50% inhibition rate (pIC50). The intensity was expressed by the following symbols (+, ++, +++).
row,Compound,IC50 [µM]
1,"Cn1nc(-c2cccc(F)c2)cc1Oc1cc(C#N)ccc1-c1ncc([C@H](O)CN)cn1 (stereo in doubt) [compound 404, 4-[5-(2-amino-1-hydroxyethyl)pyrimidin-2-yl]-3-[5-(3-fluorophenyl)-2-methylpyrazol-3 yl]oxybenzonitrile]",< 0.01
2,"Cn1nc(C2CC2)cc1Oc1cc(C#N)ccc1-c1cccn2c([C@@H](N)CCO)nnc12 (stereo in doubt) [compound 533, 4-[3-(1-amino-3-hydroxypropyl)-[1,2,4]triazolo[4,3-a]pyridin-8-yl]-3-(5-cyclopropyl-2-methylpyrazol-3-yl)oxybenzonitrile]",> 1
3,"Cn1nc(C2CC2)cc1Oc1cc(C#N)ccc1-c1cccn2c(C[C@H](N)C(=O)O)nnc12 (stereo in doubt) [compound 581, 2-amino-3-[8-[4-cyano-2-(5-cyclopropyl-2-methylpyrazol-3-yl)oxyphenyl]-[1,2,4]triazolo[4,3-a]pyridin-3-yl]propanoic acid]",> 1
4,"N#Cc1ccc(-c2ccc(CN)cc2)c(Nc2cc(-c3ccccc3)ncn2)c1 [Compound 1, 4-[4-(aminomethyl)phenyl]-3-[(6-phenylpyrimidin-4-yl)amino]benzonitrile]",0.01 to 1
5,"Cc1nc(Nc2cc(C#N)ccc2-c2ccc(CCN)cc2)cc(N2CCOCC2)n1 [Compound 2, 4-[4-(2-aminoethyl)phenyl]-3-[(2-methyl-6-morpholin-4-ylpyrimidin-4-yl)amino]benzonitrile]",< 0.01
6,"Cc1nc(Nc2cc(C#N)ccc2-c2ccc3c(c2)COC32CNC2)cc(N2CCOCC2)n1 [Compound 3, 3-[(2-methyl-6-morpholin-4-ylpyrimidin-4-yl)amino]-4-spiro[3H-2-benzofuran-1,3′-azetidin]-5-ylbenzonitrile]",0.01 to 1
7,"Cc1nc(Nc2cc(C#N)ccc2-c2ccc(C(=O)CN)cc2)cc(N2CCOCC2)n1 [Compound 4, 4-[4-(2-Aminoacetyl)phenyl]-3-[(2-methyl-6-morpholin-4-ylpyrimidin-4-yl)amino]benzonitrile]",> 1
8,"Cc1nc(N2CCOCC2)cc(N(C)c2cc(C#N)ccc2-c2ccc3c(c2)COC32CN(C)C2)n1 [Compound 5, 3-[methyl-(2-methyl-6-morpholin-4-ylpyrimidin-4-yl)amino]-4-(1′-methylspiro[3H-2-benzofuran-1,3′-azetidin]-5-yl)benzonitrile]",> 1
9,"CN(c1cc(C#N)ccc1-c1ncc(CCN)cn1)c1cc(-c2ccccc2)nn1C [Compound 6, 4-[5-(2-Aminoethyl)pyrimidin-2-yl]-3-[methyl-(2-methyl-5-phenylpyrazol-3-yl)amino]benzonitrile]",< 0.01
10,"Cc1nc(Oc2cc(C#N)ccc2-c2ccc(CCN)cc2)cc(N2CCOCC2)n1 [Compound 7, 4-[4-(2-Aminoethyl)phenyl]-3-(2-methyl-6-morpholin-4-ylpyrimidin-4-yl)oxybenzonitrile]",< 0.01
11,"Cc1nc(Oc2cc(C#N)ccc2-c2ccc(C(=O)CN)cc2)cc(N2CCOCC2)n1 [Compound 8, 4-[4-(2-aminoacetyl)phenyl]-3-(2-methyl-6-morpholin-4-ylpyrimidin-4-yl)oxybenzonitrile]",> 1
12,"Cc1nc(Oc2cc(C#N)ccc2-c2ccc(C(O)CN)cc2)cc(N2CCOCC2)n1 (stereo not shown) [Compound 9, 4-[4-(2-amino-1-hydroxyethyl)phenyl]-3-(2-methyl-6-morpholin-4-ylpyrimidin-4-yl)oxybenzonitrile]",< 0.01
13,"Cc1nc(Oc2cc(C#N)ccc2-c2ccc(N3CCN(C)CC3)cc2)cc(N2CCOCC2)n1 [Compound 10, 3-(2-methyl-6-morpholin-4-ylpyrimidin-4-yl)oxy-4-[4-(4-methylpiperazin-1-yl)phenyl]benzonitrile]",> 1
14,"COC(CN)c1ccc(-c2ccc(C#N)cc2Oc2cc(N3CCOCC3)nc(C)n2)cc1 (stereo not shown) [Compound 11, 4-[4-(2-Amino-1-methoxyethyl)phenyl]-3-(2-methyl-6-morpholin-4-ylpyrimidin-4-yl)oxybenzonitrile]",< 0.01
15,"Cc1nc(Oc2cc(C#N)ccc2-c2ccc(N3CCNCC3)cc2)cc(N2CCOCC2)n1 [Compound 12, 3-(2-methyl-6-morpholin-4-ylpyrimidin-4-yl)oxy-4-(4-piperazin-1-ylphenyl)benzonitrile]",> 1
16,"Cc1nc(Oc2cc(C#N)ccc2-c2ccc(C(CN)Oc3ccccc3)cc2)cc(N2CCOCC2)n1 (stereo not shown) [Compound 13, 4-[4-(2-Amino-1-phenoxyethyl)phenyl]-3-(2-methyl-6-morpholin-4-ylpyrimidin-4-yl)oxybenzonitrile]",0.01 to 1
17,"Cc1nc(Oc2cc(C#N)ccc2-c2cnc(N)nc2)cc(N2CCOCC2)n1 [Compound 14, 4-(2-aminopyrimidin-5-yl)-3-(2-methyl-6-morpholin-4-ylpyrimidin-4-yl)oxybenzonitrile]",> 1
18,"CCN(CC)c1cc(Oc2cc(C#N)ccc2-c2ccc(CCN)cc2)nc(C)n1 [Compound 15, 4-[4-(2-aminoethyl)phenyl]-3-[6-(diethylamino)-2-methylpyrimidin-4-yl]oxybenzonitrile]",0.01 to 1
19,"CCCN(CCC)c1cc(Oc2cc(C#N)ccc2-c2ccc(CCN)cc2)nc(C)n1 [Compound 16, 4-[4-(2-aminoethyl)phenyl]-3-[6-(dipropylamino)-2-methylpyrimidin-4-yl]oxybenzonitrile]",0.01 to 1
20,"Cc1nc(Oc2cc(C#N)ccc2-c2ccc(CCN)cc2)cc(N2CCCCC2)n1 [Compound 17, 4-[4-(2-Aminoethyl)phenyl]-3-(2-methyl-6-piperidin-1-ylpyrimidin-4-yl)oxybenzonitrile]",< 0.01
21,"Cc1nc(Oc2cc(C#N)ccc2-c2ccc(CCN)cc2)cc(N2CCC(F)(F)CC2)n1 [Compound 18, 4-[4-(2-aminoethyl)phenyl]-3-[6-(4,4-difluoropiperidin-1-yl)-2-methylpyrimidin-4-yl]oxybenzonitrile]",0.01 to 1
22,"Cc1nc(Oc2cc(C#N)ccc2-c2ccc(CCN)cc2)cc(N2CCCC(F)(F)C2)n1 [Compound 19, 4-[4-(2-aminoethyl)phenyl]-3-[6-(3,3-difluoropiperidin-1-yl)-2-methylpyrimidin-4-yl]oxybenzonitrile]",0.01 to 1
23,"Cc1nc(Oc2cc(C#N)ccc2-c2ccc(CCN)cc2)cc(-c2ccnn2C)n1 [Compound 20, 4-[4-(2-aminoethyl)phenyl]-3-[2-methyl-6-(2-methylpyrazol-3-yl)pyrimidin-4-yl]oxybenzonitrile]",0.01 to 1
24,"Cc1nc(Oc2cc(C#N)ccc2-c2ccc(CCN)cc2)cc(-c2ccccc2C#N)n1 [Compound 21, 4-[4-(2-Aminoethyl)phenyl]-3-[6-(2-cyanophenyl)-2-methylpyrimidin-4-yl]oxybenzonitrile]",< 0.01
25,"Cc1nc(Oc2cc(C#N)ccc2-c2ccc(CCN)cc2)cc(-c2ccccc2O)n1 [Compound 22, 4-[4-(2-aminoethyl)phenyl]-3-[6-(2-hydroxyphenyl)-2-methylpyrimidin-4-yl]oxybenzonitrile]",0.01 to 1
26,"Cc1nc(Oc2cc(C#N)ccc2-c2ccc(CCN)cc2)cc(-c2ccccc2C(F)(F)F)n1 [Compound 23, 4-[4-(2-aminoethyl)phenyl]-3-[2-methyl-6-[2-(trifluoromethyl)phenyl]pyrimidin-4-yl]oxybenzonitrile]",0.01 to 1
27,"Cc1nc(Oc2cc(C#N)ccc2-c2ccc(CCN)cc2)cc(N2CC(F)(F)C2)n1 [Compound 24, 4-[4-(2-aminoethyl)phenyl]-3-[6-(3,3-difluoroazetidin-1-yl)-2-methylpyrimidin-4-yl]oxybenzonitrile]",0.01 to 1
28,"Cc1nc(Oc2cc(C#N)ccc2-c2ccc(CCN)cc2)cc(N2CCCC2)n1 [Compound 25, 4-[4-(2-aminoethyl)phenyl]-3-(2-methyl-6-pyrrolidin-1-ylpyrimidin-4-yl)oxybenzonitrile]",< 0.01
